Measured values as given in patent US20140296484A1, “Cyclin Based Inhibitors of CDK2 and CDK4” (University of South Carolina, priority 2013, published 2014).
Several values for one entry are separate records, joined by “and”; a condition that tells them apart may be missing. Equal values may be shown once. Read-outs that look alike come from different tables or passages of the source. Where a SMILES comes first, the peptide text is derived from it. Where no end group is shown, it is not given here. [ ]: non-standard residue; d: D form. The star is where a group is joined. X5 = Cc1nc(C(=O)*)nn1-c1cc(Cl)cc(Cl)c1; Ala(cPent) = N[C@@H](CC1CCCC1)C(=O)O; X1 = Cc1nc(C(=O)*)nn1-c1ccc(Cl)cc1; X2 = O=C(c1ccc(-c2ccc(Cl)cc2)o1)*; 3Pal = N[C@@H](Cc1cccnc1)C(=O)O; 2Thi = N[C@@H](Cc1cccs1)C(=O)O; 3Thi = N[C@@H](Cc1ccsc1)C(=O)O; Cba = N[C@@H](CC1CCC1)C(=O)O; Picolinoyl = O=C(c1ccccn1)*; Bz = O=C(c1ccccc1)*

Tests used:
CDK2/cyclin A = CDK2/cyclin A (Homo sapiens, UniProt P20248); test: Fluorescence polarization (FP) competitive binding assay
Procedure: (§1) Once the compounds were characterized, their binding affinities were tested by FP assay.

CDK4/Cyclin D1 [1] = target: T1, CDK4/Cyclin D1 (Homo sapiens, UniProt P24385); test: as above
Procedure: (§2) In order to assess the contribution of the PLA H-bond acceptor, analogous compounds were made in each series and activities for the 4-chloro and 3,5-dichloro analog were evaluated in each context.
(§3) Several additional analogs were synthesized in addition to the 3,5 dichloro and 4-chlorophenyl analogs. In addition to determining their inhibition of CDK2/cyclin A, the availability of the CDK4/cyclin D1 binding assay was exploited to develop SAR for both kinases.
as §1

[2] = as above; conditions: Table 20; read-out: CDK2/Cyclin A IC050
Procedure: as §2, §3, §1

CDK2/Cyclin A2 = CDK2/Cyclin A2 (Homo sapiens, UniProt P20248); test: In vitro kinase assay, 32P filter capture with GST-Rb substrate; format: biochemical
CDK4/Cyclin D1 [3] = target: T1, CDK4/Cyclin D1; test: as above; format: biochemical; conditions: for IC50: kinase assay
36 other protein kinases = conditions: cited from earlier work
[4] = test system: retinoblastoma (Rb)-positive tumor cells; conditions: cited from earlier work
[5] = test system: Colo-205 human colon carcinoma xenografts; conditions: oral administration to mice bearing Colo-205 xenografts; cited from earlier work
[6] = competitive binding (FP) assay, read-out: CDK2/Cyclin A IC50
[7] = Table 15, read-out: CDK2/Cyclin D1 IC50
[8] = competitive binding (FP) assay, read-out: CDK4/Cyclin D1 IC50
[9] = Table 10, Scaffold III N-caps on the peptide link, read-out: IC50 CDK2/A2

T1 sequence (P24385 whole entry): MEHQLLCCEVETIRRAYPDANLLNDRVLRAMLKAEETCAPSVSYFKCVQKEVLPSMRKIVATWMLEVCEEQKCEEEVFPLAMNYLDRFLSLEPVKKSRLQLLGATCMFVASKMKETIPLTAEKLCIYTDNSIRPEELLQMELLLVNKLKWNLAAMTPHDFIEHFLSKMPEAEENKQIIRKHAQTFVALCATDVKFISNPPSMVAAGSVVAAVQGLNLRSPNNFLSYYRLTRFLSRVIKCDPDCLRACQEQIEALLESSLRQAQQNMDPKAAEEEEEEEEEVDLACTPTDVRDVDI
T1 sequence (P11802 whole entry partner): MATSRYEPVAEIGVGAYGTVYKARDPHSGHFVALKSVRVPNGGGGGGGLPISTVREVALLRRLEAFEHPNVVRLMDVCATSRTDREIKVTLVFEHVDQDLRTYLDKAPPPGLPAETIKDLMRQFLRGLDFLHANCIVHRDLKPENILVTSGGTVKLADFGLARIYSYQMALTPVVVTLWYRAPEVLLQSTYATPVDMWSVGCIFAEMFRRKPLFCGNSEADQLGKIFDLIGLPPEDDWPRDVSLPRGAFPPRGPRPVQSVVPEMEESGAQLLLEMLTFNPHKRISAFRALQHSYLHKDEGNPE

## Cc1nc(C(=O)N[C@@H](CCCNC(=N)N)C(=O)NC(CC(=O)NCc2ccccc2)CC(C)C)nn1-c1cc(Cl)cc(Cl)c1 (stereo partly shown) [compound 6000]
CDK2/cyclin A; [6]
  IC50: > 180 µM
CDK4/Cyclin D1 [1]; [7]
  IC50: > 180 µM

## COc1ccccc1CC(CC(C)C)NC(=O)C(CCCCNC(=N)N)NC(=O)c1nc(C)n(-c2cc(Cl)cc(Cl)c2)n1 (single isomer, unassigned) [compound 5981]
CDK2/cyclin A; [6]
  IC50: > 180 µM
[2]
  IC50: > 180 µM

## CC[C@H](C)[C@H](NC(=O)[C@H](CC(C)C)NC(=O)[C@H](CCCNC(=N)N)NC(=O)[C@H](CCCNC(=N)N)NC(=O)[C@H](CCCCN)NC(=O)[C@H](C)NC(=O)[C@@H](N)Cc1c[nH]cn1)C(=O)N[C@@H](Cc1cccs1)C(N)=O [HAKRRLIX2] (H-HAKRRLI[2Thi]-NH2)
CDK2/Cyclin A2
  IC50: 3.6 µM

## CC(C)C[C@H](NC(=O)[C@H](CCCNC(=N)N)NC(=O)[C@H](CCCNC(=N)N)NC(=O)[C@H](CCCCN)NC(=O)[C@H](C)NC(=O)[C@@H]1CCCN1)C(=O)N[C@@H](Cc1ccccc1)C(=O)NCC(N)=O
CDK4/Cyclin D1 [3]
  IC50: 6.7 µM

## CC[C@H](C)[C@H](NC(=O)[C@H](CC(C)C)NC(=O)[C@H](CCCNC(=N)N)NC(=O)c1nc(C)n(-c2cc(Cl)cc(Cl)c2)n1)C(=O)N[C@@H](Cc1ccccc1)C(=O)O [SCCP 5773, 1-(3,5-dichlorophenyl)-5-methyl-1H-1,2,4-triazole-3-carbonyl-RLIF] (X5-RLIF-OH)
CDK2/cyclin A; [6]
  IC50: 12 µM
CDK4/Cyclin D1 [1]; [8]
  IC50: 27 µM

## CCOc1ccccc1C(CC(C)C)NC(=O)C(CCCCNC(=N)N)NC(=O)c1nc(C)n(-c2cc(Cl)cc(Cl)c2)n1 (stereo not shown) [compound 5984]
CDK2/cyclin A; [6]
  IC50: > 180 µM
[2]
  IC50: > 180 µM

## CC(=O)c1c(C)c2cnc(Nc3ccc(N4CCNCC4)cn3)nc2n(C2CCCC2)c1=O [PD0332991]
36 other protein kinases
  activity against 36 other protein kinases: no activity
[4]
  antiproliferative activity: potent antiproliferative agent
[5]
  tumor response: marked tumor regression

## CC[C@H](C)[C@H](NC(=O)[C@H](CC(C)C)NC(=O)[C@H](CCCNC(=N)N)NC(=O)c1ccccn1)C(=O)N[C@@H](Cc1ccccc1)C(=O)O [525 (RLIF form)] (Picolinoyl-RLIF-OH)
CDK2/cyclin A; Table 11, value tagged (LIF), read-out: IC50 CDK2/A2 (LIF)
  IC50: 94.3 ± 14.9 µM
CDK4/Cyclin D1 [1]; Table 11, value tagged (LIF) (0321), read-out: IC50 CDK4/D1 (LIF) (0321)
  IC50: 49 µM
CDK4/Cyclin D1 [1]; Table 11, value tagged (LIF), read-out: IC50 CDK4/D1 (LIF)
  IC50: 64 µM

## Cc1nc(C(=O)N[C@@H](CCCNC(=N)N)C(=O)NC(CC(=O)NCCc2ccccc2)CC(C)C)nn1-c1cc(Cl)cc(Cl)c1 (stereo partly shown) [compound 6002]
CDK2/cyclin A; [6]
  IC50: > 180 µM
CDK4/Cyclin D1 [1]; [7]
  IC50: > 180 µM

## CC[C@H](C)[C@H](NC(=O)[C@H](CC(C)C)NC(=O)[C@H](CCCNC(=N)N)NC(=O)c1ccccc1)C(=O)N[C@@H](Cc1ccccc1)C(N)=O [compound 5857] (Bz-RLIF-NH2)
CDK2/cyclin A
  IC50: > 100 µM
CDK4/Cyclin D1 [1]
  IC50: 100 to 180 µM

## Cc1nc(C(=O)N[C@@H](CCCNC(=N)N)C(=O)NC(CC(C)C)C(=O)NCCCc2ccccc2)nn1-c1cc(Cl)cc(Cl)c1 (stereo partly shown) [SCCP 6004]
CDK2/cyclin A; [6]
  IC50: 57.7 µM

## CC[C@H](C)[C@H](NC(=O)[C@H](CC(C)C)NC(=O)[C@H](CCCNC(=N)N)NC(=O)[C@@H](N)CCCNC(N)=O)C(=O)N[C@@H](Cc1ccccc1)C(N)=O [CitRLIF, Cit-RLIF]
CDK4/Cyclin D1 [3]
  IC50: 179 µM

## COc1ccccc1CC(CC(C)C)NC(=O)C(CCCCNC(=N)N)NC(=O)c1nc(C)n(-c2cc(Cl)cc(Cl)c2)n1 (stereo not shown) [compound 5982]
CDK2/cyclin A; [6]
  IC50: > 180 µM
[2]
  IC50: > 180 µM

## 5920 (RLIF; also: OH in table column, meaning not given here) [compound 5920]
CDK2/cyclin A; [9]
  IC50: 5.86 µM

## COc1ccccc1C(CC(C)C)NC(=O)C(CCCCNC(=N)N)NC(=O)c1nc(C)n(-c2cc(Cl)cc(Cl)c2)n1 (stereo not shown) [compound 5985]
CDK2/cyclin A; [6]
  IC50: > 180 µM
[2]
  IC50: > 180 µM

## CCCOc1ccc(C)cc1C(CC(C)C)NC(=O)C(CCCCNC(=N)N)NC(=O)c1nc(C)n(-c2cc(Cl)cc(Cl)c2)n1 (stereo not shown) [compound 5980]
CDK2/cyclin A; [6]
  IC50: > 180 µM
[2]
  IC50: > 180 µM

## CC[C@H](C)[C@H](NC(=O)[C@H](CC(C)C)NC(=O)[C@H](CCCNC(=N)N)NC(=O)[C@H](CCCNC(=N)N)NC(=O)[C@H](CCCCN)NC(=O)[C@H](C)NC(=O)[C@@H](N)Cc1c[nH]cn1)C(=O)N[C@@H](Cc1cccnc1)C(N)=O [HAKRRLIX7] (H-HAKRRLI[3Pal]-NH2)
CDK2/Cyclin A2
  IC50: 29 µM

## CC[C@H](C)[C@H](NC(=O)[C@H](CC(C)C)NC(=O)[C@H](CCCNC(=N)N)NC(=O)[C@H](CCCNC(=N)N)NC(=O)[C@H](CCCCN)NC(=O)[C@H](C)NC(=O)[C@@H](N)Cc1c[nH]cn1)C(=O)N[C@@H](Cc1ccsc1)C(N)=O [HAKRRLIX3] (H-HAKRRLI[3Thi]-NH2)
CDK2/Cyclin A2
  IC50: 25 µM

## 5919 (RLIF) [compound 5919]
CDK2/cyclin A; [9]
  IC50: 16.7 µM

## H-HAKTRLIF-NH2
CDK2/Cyclin A2
  IC50: 50 µM
CDK4/Cyclin D1 [3]
  IC50: 25 µM

## CC[C@H](C)[C@H](NC(=O)[C@H](CC(C)C)NC(=O)[C@H](CCCNC(=N)N)NC(=O)[C@H](CCCNC(=N)N)NC(=O)[C@H](CCCCN)NC(=O)[C@H](C)NC(=O)[C@@H](N)Cc1c[nH]cn1)C(=O)N[C@@H](CC1CCCC1)C(N)=O [HAKRRLIX5] (H-HAKRRLI[Ala(cPent)]-NH2)
CDK2/Cyclin A2
  IC50: 20 µM
CDK4/Cyclin D1 [3]
  IC50: 90 µM

## CCN(Cc1ccccc1)C(=O)CC(CC(C)C)NC(=O)[C@H](CCCNC(=N)N)NC(=O)c1nc(C)n(-c2cc(Cl)cc(Cl)c2)n1 (stereo partly shown) [compound 6001]
CDK2/cyclin A; [6]
  IC50: > 180 µM
CDK4/Cyclin D1 [1]; [7]
  IC50: > 180 µM

## CC[C@H](C)[C@H](NC(=O)[C@H](CC(C)C)NC(=O)[C@H](CCCNC(=N)N)NC(=O)c1nc(C)n(-c2cc(Cl)cc(Cl)c2)n1)C(=O)NCc1cccc(Oc2ccccc2)c1 [SCCP10]
CDK4/Cyclin D1 [3]
  IC50: 8 µM

## H-SAKRNLFGM-NH2
CDK4/Cyclin D1 [3]
  IC50: 146 µM

## CC[C@H](C)[C@H](NC(=O)[C@H](CC(C)C)NC(=O)[C@H](CCCNC(=N)N)NC(=O)c1nc(C)n(-c2ccc(Cl)cc2)n1)C(=O)N[C@@H](Cc1ccccc1)C(=O)O [SCCP 5774] (X1-RLIF-OH)
CDK2/cyclin A; [6]
  IC50: 25 µM
CDK4/Cyclin D1 [1]; [8]
  IC50: 11 µM

## CC(C)C[C@@H](CC(=O)NCc1cccc(Oc2ccccc2)c1)NC(=O)[C@H](CCCNC(=N)N)NC(=O)[C@@H](N)CCCNC(=N)N [SCCP 5624, Arg-Arg-β-homoleucyl-3-phenoxybenzylamid]
CDK4/Cyclin D1 [3]; CDK4/cyclin D1 vs CDK2/cyclin A
  selectivity: selective for CDK4/cyclin D1

## CCN(CCc1ccccc1)C(=O)CC(CC(C)C)NC(=O)[C@H](CCCNC(=N)N)NC(=O)c1nc(C)n(-c2cc(Cl)cc(Cl)c2)n1 (stereo partly shown) [compound 6003]
CDK4/Cyclin D1 [1]; [7]
  IC50: > 180 µM

## CC[C@H](C)[C@H](NC(=O)[C@H](CC(C)C)NC(=O)[C@H](CCCNC(N)=O)NC(=O)[C@@H](N)CCCNC(=N)N)C(=O)N[C@@H](Cc1ccccc1)C(N)=O [RCitLIF]
CDK4/Cyclin D1 [3]
  IC50: 179 µM

## H-SAKRALFGM-NH2
CDK4/Cyclin D1 [3]
  IC50: 68 µM

## CC[C@H](C)[C@H](NC(=O)[C@H](CC(C)C)NC(=O)[C@H](CCCNC(=N)N)NC(=O)c1ccc(-c2ccc(Cl)cc2)o1)C(=O)N[C@@H](Cc1ccccc1)C(=O)O [SCCP 5770] (X2-RLIF-OH)
CDK4/Cyclin D1 [1]; CDK4/cyclin D1 context
  fold less potent relative to the triazole N capping group: 25 fold

## CC[C@H](C)[C@H](NC(=O)[C@H](CC(C)C)NC(=O)[C@H](CCCNC(=N)N)NC(=O)[C@H](CCCNC(=N)N)NC(=O)[C@H](CCCCN)NC(=O)[C@H](C)NC(=O)[C@@H](N)Cc1c[nH]cn1)C(=O)N[C@@H](CC1CCC1)C(N)=O [HAKRRLIX4] (H-HAKRRLI[Cba]-NH2)
CDK2/Cyclin A2
  IC50: 25 µM
CDK4/Cyclin D1 [3]
  IC50: 100 µM

## N=C(N)NCCCC(NC(=O)c1ccccc1)C(=O)Nc1ccc2ccccc2c1 (stereo not shown) [N-(5-guanidino-1-(naphthalen-2-ylamino)-1-oxopentan-2-yl)benzamide]
CDK2/cyclin A; cyclin not specified (Cyclin A and D1 expected)
  binding in the FP assay: weakly binding

## Cc1nc(C(=O)NC(CCCNC(=N)N)C(=O)NC(CC(C)C)C(=O)NCCCc2ccccc2)nn1-c1cc(Cl)cc(Cl)c1 (stereo not shown) [compound 6004]
CDK2/cyclin A; [6]
  IC50: 57.7 µM
CDK4/Cyclin D1 [1]; [7]
  IC50: > 180 µM

## Cc1nc(C(=O)NC(CCCCNC(=N)N)C(=O)NC(CC(C)C)c2ccccc2OCC(C)C)nn1-c1cc(Cl)cc(Cl)c1 (stereo not shown) [compound 5978]
CDK2/cyclin A; [6]
  IC50: > 180 µM
[2]
  IC50: > 180 µM

## CCN(CCCc1ccccc1)C(=O)C(CC(C)C)NC(=O)[C@H](CCCNC(=N)N)NC(=O)c1nc(C)n(-c2cc(Cl)cc(Cl)c2)n1 (stereo partly shown) [compound 6005]
CDK2/cyclin A; [6]
  IC50: > 180 µM
CDK4/Cyclin D1 [1]; [7]
  IC50: > 180 µM

## CCN(CCc1ccccc1)C(=O)CC(CC(C)C)NC(=O)[C@H](CCCNC(=N)N)NC(=O)c1nc(C)n(-c2cc(Cl)cc(Cl)c2)n1 (stereo partly shown) [SCCP 6003]
CDK2/cyclin A; [6]
  IC50: 85.6 µM

## 5921 (RLIF; also: C7H16N2 group attached) [compound 5921]
CDK2/cyclin A; [9]
  IC50: 6.04 µM and 6.6 µM
